Literature values as cited in paper PMC7731283, “Synthesis and Biological Evaluation of Halogenated E-Stilbenols as Promising Antiaging Agents” (Molecules, 2020).

Design: method as in PMID 29315886, PMID 15779070
Conditions: compared with RSV; cited from earlier work

## COc1cc(/C=C/c2ccc(O)cc2)cc(OC)c1 [pterostilbene]
  metabolic stability: more metabolically stable
